In assay [1] the target is T1, Fatty-acid amide hydrolase 1 (Homo sapiens, UniProt O00519).
T1 sequence (O00519 whole entry): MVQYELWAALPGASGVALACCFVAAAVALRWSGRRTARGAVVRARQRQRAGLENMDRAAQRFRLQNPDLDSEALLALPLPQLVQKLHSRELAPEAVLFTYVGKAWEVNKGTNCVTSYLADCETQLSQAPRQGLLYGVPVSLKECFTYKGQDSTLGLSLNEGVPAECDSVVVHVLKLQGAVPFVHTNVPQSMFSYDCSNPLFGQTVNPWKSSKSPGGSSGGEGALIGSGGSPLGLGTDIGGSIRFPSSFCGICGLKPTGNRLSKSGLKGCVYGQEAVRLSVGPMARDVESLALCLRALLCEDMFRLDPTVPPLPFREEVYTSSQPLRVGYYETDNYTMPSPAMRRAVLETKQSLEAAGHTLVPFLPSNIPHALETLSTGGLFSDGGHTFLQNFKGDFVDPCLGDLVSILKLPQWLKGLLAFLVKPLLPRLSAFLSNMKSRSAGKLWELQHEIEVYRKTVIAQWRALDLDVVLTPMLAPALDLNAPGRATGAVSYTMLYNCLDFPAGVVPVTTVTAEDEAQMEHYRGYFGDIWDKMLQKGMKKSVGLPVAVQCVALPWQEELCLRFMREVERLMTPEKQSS
The experiment in a line: Inhibition of FAAH at pH 9.

The target of assay [2] is T2, Fatty-acid amide hydrolase 1 (Homo sapiens) (UniProt O00519).
T2 sequence (whole entry): T1 sequence (O00519 whole entry)
Description: Binding affinity to FAAH assessed as thermal stability by measuring melting temperature

The target in assay [3] is T1, Fatty-acid amide hydrolase 1. Nature of the assay: Inhibition of FAAH at pH 7.5.

With `O=C(O)c1cccc(-c2nnc(C(=O)CCCCCCc3ccccc3)o2)n1`, the affinity in assay [1], expressed as Ki, was 14 nM. Also, in assay [2], the Tm is 64.3 °C.

For the molecule `O=C(CCCCCCc1ccccc1)c1ncc(-c2ccccc2)o1`, the Tm in assay [2] came out at 47.2 °C.

For `COC(=O)c1cccc(-c2cnc(C(=O)CCCCCCc3ccccc3)o2)n1`, the Tm in assay [2] came to 53.4 °C.

Turning to `O=C(CCc1ccc(-c2ccccc2)cc1)c1ncc(-c2ccccn2)o1`, in assay [2], the Tm was 59.9 °C.

Molecule `O=C(CCCCCCc1ccccc1)c1ncc(-c2cccc(-c3nnn[nH]3)n2)o1` came in with a Ki in assay [1] of 40 nM. The Tm in assay [2] was determined as 54.7 °C.

For `O=C(CCCCCCc1ccccc1)c1nnc(-c2ccccn2)o1`, the affinity in assay [1], expressed as Ki, was 0.29 nM. For the same molecule, in assay [2], the Tm turned out to be 60.6 °C.

Regarding `NC(=O)c1cccc(-c2cnc(C(=O)CCCCCCc3ccccc3)o2)n1`, in assay [2], the Tm stood at 55 °C.

Molecule `O=C(O)c1cccc(-c2cnc(C(=O)CCCCCCc3ccccc3)o2)n1` registered a Ki in assay [3] of 10.4 nM.

Molecule `O=C(O)c1cccc(-c2cnc(C(=O)CCc3ccc(-c4ccc(CN5CCSCC5)cc4)cc3)o2)n1` returned a Ki in assay [1] of 28 nM. Further, the Tm in assay [2] turned out to be 65.3 °C.

Regarding `O=C(O)c1cccc(-c2cnc(C(=O)CCc3ccc(-c4ccccc4)cc3)o2)n1`, affinity in assay [1] was put at a Ki of 22 nM.

For the molecule `O=C(CCCCCCc1ccccc1)c1ncc(-c2ccccn2)o1`, the Tm in assay [2] worked out at 58.5 °C.
